Experimental data taken from patent US20210205292A1, “INHIBITORS OF CREB-CBP INTERACTION FOR TREATMENT OF LEUKEMIA” (The Board of Trustees of the Leland Stanford Junior …, priority 2016, published 2021).

Legend:
Assay type in all cases: cell-based
[1] = system: Nalm6 (human ALL cell line); experiment: CellTiter Glo assay in Nalm6 cells
Description: (§1) The compounds prepared according to the methods described herein and tested for activity in the CellTiter Glo assay in HL60 (Human promyelocytic leukemia cell line), Jukat (human T lymphocyte cell line for acute T cell leukemia) and/or Nalm6 (human ALL cell line) cells.
(§2) Compounds were prepared according to the methods described herein and tested for activity in the CellTiter Glo assay in HL60 (Human promyelocytic leukemia cell line), Jukat (human T lymphocyte cell line for acute Tcell leukemia) and/or Nalm6 (human ALL cell line) cells.

[2] = system: HL60 (Human promyelocytic leukemia cell line); experiment: CellTiter Glo assay in HL60 cells
Description: as §1, §2

[3] = system: Jukat (human T lymphocyte cell line for acute T cell leukemia); experiment: CellTiter Glo assay in Jukat cells
Description: as §1, §2

IC50 ([2]; HL-60, second Table 4) [µM] | IC50 ([3]; second Table 4) [µM] | IC50 ([2]; HL-60, Table 5) [µM] | IC50 ([3]; Table 5) [µM] | SMILES | IC50 ([1]; NALM-6, second Table 4) [µM] | IC50 ([1]; NALM-6, Table 5) [µM]
– | – | 0.1 to 1 | 0.1 to 1 | N#Cc1ccc(NC(=O)c2cc(-c3ccccc3)c3cccnc3c2O)cc1 [Compound 65] | – | 0.1 to 1
– | – | 0.1 to 1 | 0.1 to 1 | O=C(Nc1ccc(C(F)(F)F)cc1)c1ccc2cccnc2c1O [Compound 66] | – | 0.1 to 1
– | – | 0.1 to 1 | 0.1 to 1 | O=C(Nc1ccc(Cl)cc1)c1ccc2cccnc2c1O [Compound 67] | – | 0.1 to 1
– | – | 0.1 to 1 | 0.1 to 1 | O=C(Nc1ccc(Br)c(Cl)c1)c1ccc2cccnc2c1O [Compound 68] | – | 0.1 to 1
– | – | 0.1 to 1 | 0.1 to 1 | O=C(Nc1cc(F)cc(F)c1)c1ccc2cccnc2c1O [Compound 69] | – | 0.1 to 1
– | – | 1 to 10 | 0.1 to 1 | O=C(Nc1cc(C(F)(F)F)cc(C(F)(F)F)c1)c1ccc2cccnc2c1O [Compound 70] | – | 1 to 10
– | – | 0.1 to 1 | < 0.1 | N#Cc1ccc(NC(=O)c2cc(Br)c3cccnc3c2O)cc1 [Compound 71] | – | < 0.1
– | – | 0.1 to 1 | 0.1 to 1 | N#Cc1ccc(NC(=O)c2cc(-c3ccco3)c3cccnc3c2O)cc1 [Compound 72] | – | 0.1 to 1
– | – | 1 to 10 | 0.1 to 1 | Cc1cc(C(=O)Nc2ccc(C#N)cc2)c(O)c2ncccc12 [Compound 73] | – | 0.1 to 1
– | – | 0.1 to 1 | – | CC(=O)Oc1c(C(=O)Nc2ccc(C#N)cc2)ccc2cccnc12 [Compound 74] | – | –
– | – | 0.1 to 1 | 0.1 to 1 | N#Cc1ccc(NC(=O)c2ccc3cccnc3c2O)c(Cl)c1 [Compound 77] | – | 0.1 to 1
– | – | 0.1 to 1 | 0.1 to 1 | Cc1cc(C#N)ccc1NC(=O)c1ccc2cccnc2c1O [Compound 78] | – | < 0.1
– | – | 1 to 10 | 1 to 10 | Cc1cccc(Cl)c1NC(=O)c1ccc2cccnc2c1O [Compound 79] | – | 1 to 10
– | – | 0.1 to 1 | 0.1 to 1 | N#Cc1ccc(Cl)c(NC(=O)c2ccc3cccnc3c2O)c1 [Compound 80] | – | 0.1 to 1
– | – | 0.1 to 1 | 0.1 to 1 | O=C(Nc1ccc(Cl)cc1Cl)c1ccc2cccnc2c1O [Compound 81] | – | 0.1 to 1
– | – | 0.1 to 1 | – | O=C(Nc1c(Cl)cccc1Cl)c1ccc2cccnc2c1O [Compound 87] | – | –
– | – | 0.1 to 1 | – | N#Cc1ccc(C#N)c(NC(=O)c2ccc3cccnc3c2O)c1 [Compound 88] | – | –
– | – | 1 to 10 | – | Cc1ccc(NC(=O)c2ccc3cccnc3c2O)c(C)c1 [Compound 89] | – | –
< 1 | – | – | – | O=C(Nc1ccc([N+](=O)[O-])cc1)c1cc(F)ccc1O [Compound 160] | – | –

More lines, now with the values behind:

SMILES | IC50 ([2]; HL-60, second Table 4) [µM] | IC50 ([3]; second Table 4) [µM] | IC50 ([2]; HL-60, Table 5) [µM] | IC50 ([3]; Table 5) [µM] | IC50 ([1]; NALM-6, second Table 4) [µM] | IC50 ([1]; NALM-6, Table 5) [µM]
O=C(Nc1ccc(C(F)(F)F)cc1)c1cc(F)ccc1O [Compound 44] | < 1 | < 1 | – | – | < 1 | –
O=C(Nc1ccc(OC(F)(F)F)cc1)c1cc(F)ccc1O [Compound 45] | < 1 | < 1 | – | – | 1 to 10 | –
O=C(Nc1ccc(OC(F)(F)F)c(Cl)c1)c1cc(F)ccc1O [Compound 46] | < 1 | < 1 | – | – | < 1 | –
O=C(Nc1ccc(Cl)c(C(F)(F)F)c1)c1cc(F)ccc1O [Compound 47] | < 1 | > 10 | – | – | < 1 | –
O=C(Nc1ccc(F)c(C(F)(F)F)c1)c1cc(F)ccc1O [Compound 48] | < 1 | < 1 | – | – | 1 to 10 | –
Cc1ccc(NC(=O)c2cc(F)ccc2O)cc1C(F)(F)F [Compound 49] | < 1 | 1 to 10 | – | – | 1 to 10 | –
O=C(Nc1cccc(C(F)(F)F)c1)c1cc(F)ccc1O [Compound 50] | < 1 | < 1 | – | – | 1 to 10 | –
O=C(Nc1cc(C(F)(F)F)cc(C(F)(F)F)c1)c1cc(F)ccc1O [Compound 51] | < 1 | < 1 | – | – | < 1 | –
O=C(Nc1cccc(OC(F)(F)F)c1)c1cc(F)ccc1O [Compound 52] | < 1 | < 1 | – | – | 1 to 10 | –
O=C(Nc1ccc(-c2ccccc2)cc1)c1cc(F)ccc1O [Compound 53] | 1 to 10 | – | – | – | – | –
COc1ccc(NC(=O)c2cc(F)ccc2O)cc1 [Compound 54] | 1 to 10 | > 10 | – | – | > 10 | –
COc1cc(NC(=O)c2cc(F)ccc2O)ccc1F [Compound 55] | 1 to 10 | – | – | – | – | –
Cc1cc(NC(=O)c2cc(F)ccc2O)ccc1F [Compound 56] | 1 to 10 | < 1 | – | – | 1 to 10 | –
CCOC(=O)c1ccc(NC(=O)c2cc(F)ccc2O)cc1 [Compound 57] | 1 to 10 | 1 to 10 | – | – | 1 to 10 | –
CCOC(=O)c1cccc(NC(=O)c2cc(F)ccc2O)c1 [Compound 58] | < 1 | 1 to 10 | – | – | 1 to 10 | –
O=C(Nc1ccccc1F)c1cc(F)ccc1O [Compound 61] | 1 to 10 | – | – | – | – | –
O=C(Nc1ccccc1C(F)(F)F)c1cc(F)ccc1O [Compound 62] | 1 to 10 | – | – | – | – | –
Cc1ccc(C(F)(F)F)cc1NC(=O)c1cc(F)ccc1O [Compound 63] | < 1 | < 1 | – | – | 1 to 10 | –
N#Cc1ccc(NC(=O)c2ccc3cccnc3c2O)cc1 [Compound 64] | – | – | 0.1 to 1 | 0.1 to 1 | – | < 0.1
